Bounds are passed on as bounds.

The target in this experiment is T1, Tie-2-Kinase (Homo sapiens, UniProt Q02763).
T1 construct: made in house
T1 sequence (Q02763 23-1124): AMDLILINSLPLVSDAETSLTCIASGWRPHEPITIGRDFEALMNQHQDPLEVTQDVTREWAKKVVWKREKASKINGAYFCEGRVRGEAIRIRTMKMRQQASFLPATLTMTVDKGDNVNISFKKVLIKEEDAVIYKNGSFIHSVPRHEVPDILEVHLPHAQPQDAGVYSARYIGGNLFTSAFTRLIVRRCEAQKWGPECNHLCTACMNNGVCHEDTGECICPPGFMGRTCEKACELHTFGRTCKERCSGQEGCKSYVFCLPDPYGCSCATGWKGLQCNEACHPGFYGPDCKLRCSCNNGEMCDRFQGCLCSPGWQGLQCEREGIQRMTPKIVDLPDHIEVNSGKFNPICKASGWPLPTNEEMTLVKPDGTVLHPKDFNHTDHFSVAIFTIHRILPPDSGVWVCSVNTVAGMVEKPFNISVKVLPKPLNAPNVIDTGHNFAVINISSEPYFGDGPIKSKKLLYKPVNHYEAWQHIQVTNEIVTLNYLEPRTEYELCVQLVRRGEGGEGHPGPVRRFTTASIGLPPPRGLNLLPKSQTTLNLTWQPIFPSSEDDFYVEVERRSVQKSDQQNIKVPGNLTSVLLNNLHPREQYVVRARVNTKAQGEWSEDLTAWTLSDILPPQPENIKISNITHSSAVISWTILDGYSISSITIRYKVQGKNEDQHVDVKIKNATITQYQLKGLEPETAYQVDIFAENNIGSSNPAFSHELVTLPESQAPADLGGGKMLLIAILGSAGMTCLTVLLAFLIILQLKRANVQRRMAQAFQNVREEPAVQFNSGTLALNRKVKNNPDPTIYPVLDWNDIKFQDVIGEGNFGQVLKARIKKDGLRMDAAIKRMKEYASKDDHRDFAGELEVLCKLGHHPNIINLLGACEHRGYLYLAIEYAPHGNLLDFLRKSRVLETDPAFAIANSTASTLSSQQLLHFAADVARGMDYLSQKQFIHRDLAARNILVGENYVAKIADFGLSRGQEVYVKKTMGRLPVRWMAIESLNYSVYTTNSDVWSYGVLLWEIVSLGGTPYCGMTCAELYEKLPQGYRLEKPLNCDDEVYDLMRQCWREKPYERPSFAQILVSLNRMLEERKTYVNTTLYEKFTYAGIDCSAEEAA
Briefly: Tie-2-Kinase HTRF-Assay. In kind it is biochemical. The note with it: either in the Tie2 kinase assay or in the Tie2 autophosphorylation ELISA test; read-out: IC50, inhibit Tie2. The source says: Tie-2 phosphorylates tyrosine residues of the artificial substrate polyGAT (biotinylated polyGluAlaTyr). Detection of phosphorylated product is achieved specifically by a trimeric detection complex consisting of the phosphorylated substrate, streptavidin-XLent (SA-XLent) which binds to biotin, and Europium Cryptate-labeled anti-phosphotyrosine antibody PT66 which binds to phosphorylated tyrosine. Excitation of Europium fluorescence with 337 nm light results in emission of long-lived light with 620 nm. In case a trimeric detection complex has formed, part of the energy will be transferred to the SA-XLent fluorophore that itself then emits long-lived light of 665 nm (FRET: fluorescence resonance energy transfer). […] Measurement is performed in a Packard Discovery or BMG Rubystar instrument. A-counts (emission at 665 nm) will be divided by B-counts (emission at 620 nm) and multiplicated with a factor of 10000. The resulting numbers are called the “well ratio” of the sample.
• Enzyme: Tie-2-Kinase, in house, aliquots (12×10 mL) stored at −80° C. • Substrate: PolyGAT labeled with Biotin (1000 μg/mL); ClS Bio; # 61GATBLB; • aliquots stored at −20° C. • ATP: Amersham Pharmacia Biotech Inc. # 27-2056-01; 100 mM; stored at −20° C. • Antibody: PT66-Eu Cryptate; CIS Bio; # 61T66KLB; 30 μg/mL; aliquots stored at −20° C. • SA-XLent; CIS Bio; # 611SAXLB; 1000 μg/mL; aliquots stored at −80° C. • Microplates: 384 Well black, SV, Greiner, # 784076 Solutions: Assay Buffer: • 50 mM HEPES (pH 7.0), 25 mM MgCl2, 5 mM MnCl2, 1 mM DTT, 0.5 mM Na3VO4, 0.01% (v/v) NP40, 1× Complete EDTA free Enzyme Working Solution: • Tie-2 stock solution is diluted 1:250 in assay buffer Substrate Working Solution: • PolyGAT (1000 μg/mL; 36.23 μM) is diluted 1:90.6 to 400 nM or 77.3 ng/well, ATP (100 mM) is diluted 1:5000 to 20.0 μM. Both dilutions in assay buffer. Final assay concentrations: poly-GAT: 200 nM or 5.25 μg/mL, ATP: 10 μM (1×Km each). • Detection solution: 50 mM HEPES (pH 7.0), BSA 0.2%, 0.6 M KF, 200 mM EDTA, PT66-Europium Cryptate 2.5 ng/well, SA-XLent Cis Bio 90 ng/well. Assay Steps All Steps at 20° C. • 1. 0.75 μL of compound solution in 30% (v/v) DMSO • 2. add 7 μL of substrate working solution • 3. add 7 μL of enzyme working solution • 4. incubate 75 min (reaction volume: 14.75 μL) • 5. add 8 μL of detection solution • 6. incubate 180 min or over night at 4° C. (total volume: 22.75 μL) • 7. measure HTRF in Packard Discovery or BMG Rubystar instrument (delay 50 μs, integrated time 400 μs) Final Concentrations (in 14.75 μL Reaction Volume): • Enzyme: unknown • polyGAT (1×Km): 200 nM (77.3 ng) • ATP (1×Km): 10 μM • DMSO: 1.5% (v/v) • Buffer conditions: 50 mM HEPES (pH 7.0), 25 mM MgCl2, 5 mM MnCl2, 1 mM DTT, 0.5 mM NaVO4, 0.01% (v/v) NP40, 1× Complete Controls: • C0: uninhibited reaction (DMSO only) • Ci: inhibited reaction with 20 μM Staurosporine Biological Experiment 3: Proliferation Test
Turning to `O=C(COc1ccc(-c2cnc3nc2NCCCNS(=O)(=O)c2cccc(c2)N3)cc1)c1ccccc1` [Example 3, 2-[4-[4,4-dioxo-4λ^6-thia-2,5,9-triaza-1(2,4)-pyrimidina-3(1,3)-benzenacyclo-nonaphan-1^5-yl]phenoxy]-1-phenylethanone], the half-maximal inhibitory concentration (IC50) is no more than 1 µM. For `COc1ccc(S(=O)(=O)Nc2ccc(-c3cnc4nc3NCCCNS(=O)(=O)c3cccc(c3)N4)cc2)cc1` [Example 23, N-[4-[4,4-dioxo-4λ^6-thia-2,5,9-triaza-1(2,4)-pyrimidina-3(1,3)-benzena-cyclononaphan-1^5-yl]phenyl]-4-methoxybenzene-sulfonamide] the value was no more than 1 µM.

For `O=C(Nc1ccccc1)Nc1ccc(-c2cnc3nc2NCCCNS(=O)(=O)c2cccc(c2)N3)cc1` [Example 8, N-[4-[4,4-dioxo-4λ^6-thia-2,5,9-triaza-1(2,4)-pyrimidina-3(1,3)-benzena-cyclononaphan-1^5-yl]phenyl]-N′-phenylurea], the half-inhibitory concentration (IC50) is no more than 1 µM. For `O=S1(=O)NCCCNc2nc(ncc2-c2ccc3c(c2)OCO3)Nc2cccc1c2` [Example 1, 1^5-(1,3-benzodioxol-5-yl)-4-thia-2,5,9-triaza-1(2,4) pyrimidina-3(1,3)-benzenacyclonona-phane 4,4-dioxide] the value was no more than 1 µM; for `O=C(Nc1ccc(-c2cnc3nc2NCCCNS(=O)(=O)c2cccc(c2)N3)cc1)Nc1cccc(C(F)(F)F)c1` [Example 9, N-[4-[4,4-dioxo-4λ^6-thia-2,5,9-triaza-1(2,4)-pyrimidina-3(1,3)-benzena-cyclononaphan-1^5-yl]phenyl]-N′-[3-(trifluoromethyl)-phenyl]urea], no more than 1 µM; for `O=C(COc1ccc(-c2cnc3nc2NCCCNS(=O)(=O)c2cccc(c2)N3)cc1)c1ccc(F)cc1` [Example 2, 2-[4-[4,4-dioxo-4λ^6-thia-2,5,9-triaza-1(2,4)-pyrimidina-3(1,3)-benzenacyclo-nonaphan-1^5-yl]phenoxy]-1-(4-fluorophenyl)-ethanone], no more than 1 µM. As to `O=C(Nc1ccc(-c2cnc3nc2NCCCNS(=O)(=O)c2cccc(c2)N3)cc1)Nc1cc(C(F)(F)F)ccc1F` [Example 10, N-[4-[4,4-dioxo-4λ^6-thia-2,5,6-triaza-1(2,4)-pyrimidina-3(1,3)-benzena-cyclononaphan-1^5-yl]phenyl]-N′-[2-fluoro-5-(trifluoromethyl)-phenyl]urea], the IC50 is no more than 1 µM.
